The record followed here is patent US10709692B2, “Isoxazolidine derived inhibitors of receptor interacting protein kinase 1 (RIPK1)” (Denali Therapeutics Inc., priority 2015, dated 2020).

Structures are written as SMILES. Several values for one entry are separate records, joined by “and”; a condition that tells them apart may be missing. Equal entries are not always repeated.

As a reminder, the IC50 is the concentration that gives 50% inhibition. A low value points to greater potency. As a reminder, the melting point is the temperature of the solid-liquid transition.

The target of data set [1] is T1, receptor interacting protein kinase 1 (GST-hRIPK1 (8-327)) (Homo sapiens, UniProt Q13546).
T1 construct: GST-hRIPK1 (8-327) enzyme was generated by Proteros GmbH by Baculovirus expression system
T1 sequence (Q13546 8-327): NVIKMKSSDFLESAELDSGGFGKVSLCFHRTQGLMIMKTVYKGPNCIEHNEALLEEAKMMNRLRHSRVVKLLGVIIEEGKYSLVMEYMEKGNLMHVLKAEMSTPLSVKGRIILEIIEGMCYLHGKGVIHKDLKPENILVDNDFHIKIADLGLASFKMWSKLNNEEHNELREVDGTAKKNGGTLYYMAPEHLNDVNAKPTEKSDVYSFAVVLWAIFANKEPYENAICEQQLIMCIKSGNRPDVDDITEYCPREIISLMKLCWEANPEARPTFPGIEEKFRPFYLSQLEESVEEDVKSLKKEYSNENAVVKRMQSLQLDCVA
Kind of data set: ADP-Glo luminescence assay, RIPK1 autophosphorylation. Type of data set: biochemical. Particulars: 1.5 μg/mL GST-hRIPK1 (8-327), 50 μM ATP, 3 hours at room temperature. The procedure:
Compound potency at receptor interacting protein kinase 1 and selectivity at receptor interacting protein kinase 2 and receptor interacting protein kinase 3 was determined in autophosphorylation mode, using an ADP-Glo luminescence assay, which measures the conversion of ATP to ADP.
(§1) GST-hRIPK1 (8-327) enzyme was generated by Proteros GmbH by Baculovirus expression system. GST-hRIPK2 (1-299) and GST-hRIPK3 (1-518) enzymes were purchased from SignalChem. Test compounds were diluted in DMSO and 0.1 μL of solution was dispensed to each well of a 384-well white solid microplates. The assay buffer was 50 mM HEPES pH 7.5, 50 mM NaCl, 30 mM MgCl2. The buffer was supplemented with 0.02% CHAPS, 0.01% of Pluronic F127, 0.1 mg/mL BSA and 1 mM DTT. Only for receptor interacting protein kinase 1 5 mM MnCl2, was included in the assay buffer on the day of the experiment. The enzymatic reaction consisted of 1.5 μg/mL GST-hRIPK1 (8-327) and 50 μM ATP for receptor interacting protein kinase 1, 0.4 μg/mL GST-hRIPK2 (1-299) and 150 μM ATP, 0.4 μg/mL GST-hRIPK3 (1-518) and 15 μM ATP. 5 μL of enzyme and 5 μL of ATP were added to the plate at twice the final assay concentration and incubated at room temperature for 3 hours. Following this reaction, 10 μL of ADP-Glo reagent (Promega) was added to each well and incubated for 40 minutes at room temperature. This stops the kinase reaction and depletes any remaining ATP. 20 μL of ADP-Glo detection reagent was then added to each well and incubated at room temperature for at least 15 minutes. The detection reagent converts ADP to ATP and introduces luciferase and luciferin to detect ATP. The luminescence is then measured with the Envision (PerkinElmer) plate reader. Test compound inhibition was expressed as percent inhibition of internal assay controls. For concentration response curves, normalized data is fit and pIC50 determined using XL-fit (IDBS) for Excel. The pIC50 were averaged to determine a mean value, for a minimum of two independent experiments.
Certain compounds were tested in the following. Compound potency at receptor interacting protein kinase 1 and selectivity at receptor interacting protein kinase 2 and receptor interacting protein kinase 3 was determined in autophosphorylation mode, using an ADP-Glo luminescence assay (Berger S. B. et al. (2015) Cell Death Discovery, 1: 15009), which measures the conversion of ATP to ADP.
GST-hRIPK1 (8-327) enzyme was generated by Proteros GmbH by Baculovirus expression system.
as §1, with “Test” for “GST-hRIPK1 (8-327) enzyme was generated by Proteros GmbH by Baculovirus expression system. GST-hRIPK2 (1-299) and GST-hRIPK3 (1-518) enzymes were purchased from SignalChem. Test”, “microplate.” for “microplates.”, “comprised” for “consisted of”, “1” for “1, 0.4 μg/mL GST-hRIPK2 (1-299) and 150 μM ATP, 0.4 μg/mL GST-hRIPK3 (1-518)”, “IC50” for “pIC50”, “experiments. […]” for “experiments.”
On the technique in general: ADP-Glo turns the ADP formed in a reaction into a luminescent signal.

The target of data set [2] is T1, receptor interacting protein kinase 1 (GST-hRIPK1 (8-327)). Kind of data set: Fluorescent Polarization Binding (FP Binding) assay. Particulars: 10 nM GST-hRIPK1 (8-327), 5 nM fluorescent-labeled ligand, 30 min at RT. An outline of the steps:
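Displacement of 5 nM fluorescent ligand from 10 nM GST-hRIPK1 (8-327), 30 min at room temperature in pH 7.5 HEPES buffer, 1% DMSO. Fluorescence polarization read (ex 531/em 595 nm); IC50 fitted from percent inhibition and averaged over at least two independent experiments.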

As for `CC(C)(C(=O)N1OCC[C@H]1c1ccc(C#N)cc1)C(F)F` [Compound 88, 4-[(3S)-2-(3,3-difluoro-2,2-dimethylpropanoyl)-1,2-oxazolidin-3-yl]benzonitrile], the IC50 in data set [1] was below 1000 nM; in data set [2] it was < 1000 nM and 16 nM.

Consider `CC(C)(C)C(=O)N1OCC[C@H]1c1cncc(C#N)c1` [Compound 108, 5-[(3S)-2-(2,2-dimethylpropanoyl)-1,2-oxazolidin-3-yl]pyridine-3-carbonitrile], for which the IC50 in data set [1] and in data set [2] was below 1000 nM in each case.

Turning to `CC(C)(C)C(=O)N1OCC[C@H]1c1ccccc1F` [Compound 72], the IC50 in data set [1] and in data set [2] was below 1000 nM in each case.

For the molecule `O=C(C1CC1)N1OCC[C@H]1c1ccccc1` [Compound 12, (3S)-2-Cyclopropanecarbonyl-3-phenyl-1,2-oxazolidine], the IC50 in data set [1] and in data set [2] was below 1000 nM each time.

As to `Cc1ncc([C@@H]2CCON2C(=O)C(C)(C)C)cc1F` (single isomer, unassigned) [Compound 97], the IC50 in data set [1] and in data set [2] was below 1000 nM in each case.

In the case of `CC(C)(C)C(=O)N1OCCC1c1ccc(F)cc1` (single isomer, unassigned) [Compound 73, 1-[3-(4-Fluorophenyl)-1,2-oxazolidin-2-yl]-2,2-dimethylpropan-1-one], the IC50 in data set [1] and in data set [2] was below 1000 nM each time.

On to `CC(C)(C(=O)N1OCC[C@H]1c1ccc(-c2ncon2)cc1)C(F)F` [Compound 207, 3,3-difluoro-2,2-dimethyl-1-[(3S)-3-[4-(1,2,4-oxadiazol-3-yl)phenyl]-1,2-oxazolidin-2-yl]propan-1-one], for which the melting point lay in the range of 87.9 to 88.9 °C. In data set [2], the IC50 was below 1000 nM.

Turning to `CC(C)C(=O)N1OCC[C@H]1c1ccc(F)cc1` [Compound 64, 1-[(3S)-3-(4-Fluorophenyl)-1,2-oxazolidin-2-yl]-2-methylpropan-1-one], the IC50 in data set [1] and in data set [2] was below 1000 nM each time.

Consider `CC1(C(=O)N2OCC[C@H]2c2ccccc2)COC1` [Compound 8, (3S)-2-(3-Methyloxetane-3-carbonyl)-3-phenyl-1,2-oxazolidine], for which the half-maximal inhibitory concentration (IC50) in data set [1] and in data set [2] was below 1000 nM in each case.

On to `CC(C)(C)C(=O)N1OCCC1c1ccc(F)nc1` (stereo not shown) [Compound 70], for which the IC50 in data set [1] and in data set [2] was below 1000 nM in each case.

Consider `N#CC1(C(=O)N2OCC[C@H]2c2ccccc2)CCC1` [Compound 79, 1-[(3S)-3-Phenyl-1,2-oxazolidine-2-carbonyl]cyclobutane-1-carbonitrile], for which the IC50 in data set [1] and in data set [2] was below 1000 nM in each case.

Take `Cn1cc([C@@H]2CCON2C(=O)C(C)(C)C)cn1` (single isomer, unassigned) [Compound 106]: the IC50 in data set [1] and in data set [2] was below 1000 nM throughout.

As to `CC1(C(=O)N2OCC[C@H]2c2ccccc2)CC1` [Compound 20, (3S)-2-(1-Methylcyclopropanecarbonyl)-3-phenyl-1,2-oxazolidine], the IC50 in data set [1] and in data set [2] was below 1000 nM each time.

In the case of `CC(C)(C)C(=O)N1OCC[C@H]1c1ccccc1` [Compound 2, 2,2-dimethyl-1-[(3S)-3-phenyl-1,2-oxazolidin-2-yl]propan-1-one], the IC50 in data set [1] and in data set [2] was below 1000 nM each time.

Take `CC(C)(O)C(=O)N1OCC[C@H]1c1ccccc1` [Compound 19, 2-Hydroxy-2-methyl-1-[(3S)-3-phenyl-1,2-oxazolidin-2-yl]propan-1-one]: the IC50 in data set [1] and in data set [2] was below 1000 nM each time.

As to `Cn1c(C#N)ccc1C(=O)N1OCC[C@H]1c1ccccc1` [Compound 1, 1-Methyl-5-[(3S)-3-phenyl-1,2-oxazolidine-2-carbonyl]-1H-pyrrole-2-carbonitrile], the IC50 in data set [1] and in data set [2] was below 1000 nM in each case.

Take `CC(C)(C)C(=O)N1OCCC1c1cccnc1F` (stereo not shown) [Compound 81, 1-(3-(2-fluoropyridin-3-yl)isoxazolidin-2-yl)-2,2-dimethylpropan-1-one]: the IC50 in data set [1] and in data set [2] was below 1000 nM throughout.

As for `CC(C)(C)C(=O)N1OCC[C@H]1c1cccc(F)c1` (stereo in doubt) [Compound 23, 1-[3-(3-Fluorophenyl)-1,2-oxazolidin-2-yl]-2,2-dimethylpropan-1-one], the IC50 in data set [1] and in data set [2] was below 1000 nM each time.

With `CC1(C(=O)N2OCC[C@H]2c2ccccc2)CCOCC1` [Compound 69, (3S)-2-(4-methyloxane-4-carbonyl)-3-phenyl-1,2-oxazolidine], the IC50 in data set [1] and in data set [2] was below 1000 nM throughout.

As for `CC1(C(=O)N2OCC[C@H]2c2ccccc2)CCC1` [Compound 77, (3S)-2-(1-Methylcyclobutane-carbonyl)-3-phenyl-1,2-oxazolidine], the IC50 in data set [1] and in data set [2] was below 1000 nM in each case.

Consider `CC(C)(C)C(=O)N1OCC[C@H]1c1ccc(C#N)cc1` [Compound 87, 4-[(3S)-2-(2,2-dimethylpropanoyl)-1,2-oxazolidin-3-yl]benzonitrile], for which the concentration for half-maximal inhibition (IC50) in data set [1] and in data set [2] was below 1000 nM in each case.

`N#CC1(C(=O)N2OCC[C@H]2c2ccccc2)CC1` [Compound 16, 1-[(3S)-3-phenyl-1,2-oxazolidine-2-carbonyl]cyclopropane-1-carbonitrile]: the IC50 in data set [1] and in data set [2] was below 1000 nM throughout.

The molecule `CC(C)(C(=O)N1OCC[C@H]1c1ccc(/C(N)=N/O)cc1)C(F)F` [Compound 206, (Z)-4-[(3S)-2-(3,3-Difluoro-2,2-dimethylpropanoyl)-1,2-oxazolidin-3-yl]-N′-hydroxybenzene-1-carboximidamide] had a melting point of 67.3 to 75.6 °C. In data set [2], this molecule gave a 50% inhibitory concentration (IC50) of 1000 to 10000 nM.

Consider `CC(C)(C#N)C(=O)N1OCC[C@H]1c1ccccc1` [Compound 17, 2,2-Dimethyl-3-oxo-3-[(3S)-3-phenyl-1,2-oxazolidin-2-yl]propanenitrile], for which the IC50 in data set [1] and in data set [2] was below 1000 nM in each case.

Regarding `CC(C)C(=O)N1OCC[C@H]1c1ccccc1` [Compound 78, 2-Methyl-1-[(3S)-3-phenyl-1,2-oxazolidin-2-yl]propan-1-one], the IC50 in data set [1] and in data set [2] was below 1000 nM each time.

Take `COC(C)(C)C(=O)N1OCC[C@H]1c1ccccc1` [Compound 80, 2-Methoxy-2-methyl-1-[(3S)-3-phenyl-1,2-oxazolidin-2-yl]propan-1-one]: the IC50 in data set [1] and in data set [2] was below 1000 nM each time.
